Source: patent US5200393A, “Lipid excipient for nasal delivery and topical application” (The Liposome Company, Inc., priority 1991, dated 1993)

Experiments:
[1] = Nasal delivery of calcitonin in MOPE excipient to rats, serum calcium; type: in vivo, rat; conditions: MOPE used as the excipient delivery vehicle; FIG. 1; change in serum calcium after one and three hours
Description: Eight Wistar Kyoto male rats, weighing 250-300 g were anesthetized with a 20% solution of urethane administered in a divided dose of 1/6 g/kg, administered intraperitoneally (IP).
The rats were surgically prepared for nasal sample instillation according to the Harai method (Hussain et al., 19800, J. Pharm. Sci., 69(12):1411-1413. A pre-drug blood sample was taken from each rat (1.0 ml drawn from retroorbital site) and allowed to clot, and the serum separated by standard technique.
The calcitonin-MOPE solution (single 50 uL doses per rate) were administered by inserting a syringe containing the sample into the rats nostril, and injecting. A blood sample was obtained from each rat after one and three hours, and assayed for serum calcium.
Serum calcium was determined colorimetrically by the Sigma Diagnostics Calcium Kit No. 587 (Sigma, St. Louis, Mo.). The change in serum calcium levels compared to pre-drug controls was plotted as a function of time. (FIG. 1)

[2] = Nasal delivery of insulin in MOPE excipient to diabetic rats, serum insulin radioimmunoassay; type: in vivo, rat
Description: The insulin-MOPE solution of Example 4 was instilled into the nasal cavity of rats according to the methods of Example 3. Right Sprague-Dawley male 300 g rats which had been made diabetic according to the methods of Weiner et al., 1985, J. Pharm. Sci., 74:922-925 were used. Blood samples were collected after one hour and serum separated according to standard methods as in Example 3. The serum was analyzed for insulin using the Coat-A-CountInsulin ^125 I radioimmunoassay (Diagnostic Products Corp., Los Angeles, Calif.).
MOPE (80.0 mg) in chloroform was dried down to a lipid film on a round bottom flask at 37° C. in a water bath. The film was resuspended in 10.0 ml of distilled water which had been pH adjusted to pH 9.0 with about 20-50 uL of 0.1N sodium hydroxide (NaOH). Four mg of porcine insulin powder (Eli Lilly, Indianapolis, Ind.) supplied as 25 U/mg, was admixed with the MOPE solution and vortically mixed, creating a 0.8% MOPE insulin gel. The resulting gel was administered to diabetic rats according to the methods of Example 5. […] The methods of the above Example were repeated, dilutions were made to result in 10 ml of each of 0.4%, 0.2%, and 0.1% MOPE, 4.0 mg of insulin being admixed with these MOPE samples as well, the complete results from serum insulin concentrations of each sample plotted together in FIG. 2. […]

SMILES: CCCCCCCC/C=C\CCCCCCCC(=O)OC[C@@H](O)COP(=O)(O)OCCN [MOPE, 1-oleoyl lysophosphatidylethanolamine]
- enhancement of calcitonin through the nasal mucosa [1]: enhancement
- lipid concentration at which enhanced drug absorption of insulin occurs ([2]; excipient at about pH 7.0, cloudy fluid): about 0.8%
- MOPE concentration that has most efficacy for penetration enhancement of insulin ([2]; pH 9.0, in distilled water): 0.2%
